{
  "source": "patent US20250319139A1",
  "about": "“METHODS FOR TREATING NEUROINFLAMMATION” (University of Virginia Patent Foundation, priority 2021, published 2025)",
  "test_system": "C57BL/6J mice",
  "assay": "Novel object recognition test, old mice",
  "type": "in vivo, mouse",
  "settings": "old mice with exercise and surgery; intraperitoneal valeric acid once a week vs normal saline",
  "data": [
    {"smiles": "CCCCC(=O)O", "note": "[valeric acid]", "values": [
      {"measurement": "performance in novel object recognition test", "result": "impaired the performance"}
    ]}
  ]
}
